Measurements published in publication PMC6328046 (Gastroenterology, 2018).

Target: HDAC2 (Homo sapiens, UniProt Q92769)
Assay: surface plasmon resonance with recombinant HDAC2
Format: binding

HDAC2, sequence (Q92769 whole entry): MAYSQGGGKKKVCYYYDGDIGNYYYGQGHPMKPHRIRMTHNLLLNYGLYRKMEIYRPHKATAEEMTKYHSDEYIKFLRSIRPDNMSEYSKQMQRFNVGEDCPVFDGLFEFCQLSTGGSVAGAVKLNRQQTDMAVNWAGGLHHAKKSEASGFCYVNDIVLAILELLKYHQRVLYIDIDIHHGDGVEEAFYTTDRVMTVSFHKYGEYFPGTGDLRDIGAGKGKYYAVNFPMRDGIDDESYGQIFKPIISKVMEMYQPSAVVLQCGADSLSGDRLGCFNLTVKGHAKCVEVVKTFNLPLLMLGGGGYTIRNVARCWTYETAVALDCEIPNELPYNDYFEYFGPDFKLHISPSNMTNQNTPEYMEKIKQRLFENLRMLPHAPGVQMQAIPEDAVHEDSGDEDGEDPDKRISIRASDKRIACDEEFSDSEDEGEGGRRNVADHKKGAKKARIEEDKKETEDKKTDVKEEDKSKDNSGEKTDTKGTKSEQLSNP

Kd: 12.8 µM
Compound: COc1ccc(Nc2nnc(-c3ccc(C(=O)NO)cc3)o2)cc1 [metavert]
